Consider 14 molecules from publication PMC12737779, “Concurrent Assessment of Synthetic and Natural Compounds on the Proliferation of Toxoplasma gondii in In Vitro Models” (Tropical Medicine and Infectious Disease, 2025).

Molecules are shown by their SMILES.

One series has as its system Vero cells. Nature of the series: Cytotoxicity in Vero cells by Alamar Blue assay. It counts as cell-based, African green monkey. Conditions: 24 h. The protocol: (§1) The Vero cell line was seeded in 96-well plates at approximately 20,000 cells per well until approximately 100% confluence was reached. […] All compounds were evaluated at elevated concentrations, diluted in 1% DMSO, to determine the maximum concentration at which they could remain in solution for experimental purposes. It was observed that most compounds were not fully soluble at 320 µM. […] Consequently, all further experiments were initiated from this concentration. […] Four hours later, fluorescence was measured using a BioTek Synergy HTX plate reader at 530/25 nm excitation and 590/25 nm emission. […] A color change in the growth control well to pink indicated proper cell growth, and no color change in the sterile control well indicated the absence of contaminants. The normalized viability percentages (Y-values) of viable host cells and viable T. gondii GFP RH tachyzoites were calculated from the mean ± standard deviation for each concentration evaluated in triplicate. The concentration values (X-axis) were subjected to logarithmic transformation to fit the data to a sigmoidal curve. The half-maximal cytotoxic concentration (CC50) was estimated as the interpolated concentration value on the X-axis corresponding to the response midway between the fitted top and bottom plateaus of the curve. Similarly, the half-maximal inhibitory concentration (IC50) was determined as the concentration at which the response was halfway between the top and the bottom plateaus. Data analysis and visualization were conducted using GraphPad Prism version 8.4.3 (GraphPad Software, San Diego, CA, USA). The selectivity index, also known as the Therapeutic Index, was calculated using the formula: SI = CC50/IC50.

Series [1] deals with T. gondii RH GFP tachyzoites. As to the kind of experiment: T. gondii RH GFP tachyzoite viability assay, 72 h continuous exposure. The format is cell-based, Toxoplasma gondii. Particulars: for IC50: 72 h continuous exposure, GFP tachyzoite viability in Vero cells; for SI: CC50/IC50, 72 h continuous exposure. The protocol: Approximately 10,000 tachyzoites of the T. gondii RH GFP strain were quantified using a hemocytometer and subsequently inoculated into Vero cells at full confluence per well in a 96-well plate using a medium conducive to parasite maintenance. Following our laboratory protocols and the methodologies outlined in previous studies, we routinely utilize an inoculum of 10,000 parasites for the Toxoplasma gondii RH-GFP tachyzoite viability assay, which is conducted over a 72 h duration. This parasite density ensures reliable detection of tachyzoite growth and viability while minimizing the likelihood of detachment or any degree of disruption to the host cell monolayer. Concurrently, derivatives of pyrazoline, pyrazole, and thiazolidinone nucleus compounds were introduced at […], with 1:2 dilutions commencing at 160 μM and decreasing to a minimum concentration of 1.25 μM in triplicate. The controls employed in this experiment included non-infected cells (NC), 10 μM pyrimethamine (Pyr), 1% dimethyl sulfoxide (DMSO), and infected cells without treatment (IC). Seventy-two hours post-infection, each well in the 96-well plate was examined using a 10× objective on the EVOS FL Color Imaging System with the GFP fluorescent light cube, and images were captured approximately at the center of each well. The parasites that glowed green were considered viable, and the percentage of tachyzoite viability was compared with that of the untreated parasites. Subsequently, images were recorded, contrast was adjusted, and a semiquantitative digital analysis was conducted using ImageJ v1.54d and the triangle auto-threshold method to determine the number of viable GFP fluorescent tachyzoites per image, as previously described. The percentage of viable parasites was calculated using the formula: Fluorescence of the sample with treatment URF × 100/fluorescence of the control without treatment, where URF = unit relatives of fluorescence calculated with the formula: (sample fluorescence/fluorescence in blank well) × 100.
(§2) The normalized viability percentages (Y-values) of viable host cells and viable T. gondii GFP RH tachyzoites were calculated from the mean ± standard deviation for each concentration evaluated in triplicate. The concentration values (X-axis) were subjected to logarithmic transformation to fit the data to a sigmoidal curve. The half-maximal cytotoxic concentration (CC50) was estimated as the interpolated concentration value on the X-axis corresponding to the response midway between the fitted top and bottom plateaus of the curve. Similarly, the half-maximal inhibitory concentration (IC50) was determined as the concentration at which the response was halfway between the top and the bottom plateaus. Data analysis and visualization were conducted using GraphPad Prism version 8.4.3 (GraphPad Software, San Diego, CA, USA). The selectivity index, also known as the Therapeutic Index, was calculated using the formula: SI = CC50/IC50.

For series [2], the system named is T. gondii RH GFP tachyzoites. As to the kind of experiment: T. gondii RH GFP tachyzoite viability following 24 h pretreatment of host cells. It counts as cell-based, Toxoplasma gondii. Particulars: for Host Cell Pre-Treatment SI: CC50/IC50, host cell pre-treatment; for IC50: Vero cells pretreated 24 h, read 72 h post-infection, read-out: Host Cell Pre-Treatment IC50. The protocol: Subsequently, 10,000 T. gondii RH GFP tachyzoites were introduced into each well. The experimental controls included non-infected cells (NC), 10 μM pyrimethamine (Pyr), 1% dimethyl sulfoxide (DMSO), and infected cells without treatment (IC). After 24 h of host cell treatment, the medium was replaced with a compound-free medium for parasite maintenance. Seventy-two hours post-infection, each well of the 96-well plate was examined using a 10× objective on an Evos FL Auto Cell Imaging System microscope (Life Technologies, Carlsbad, CA, USA). A semiquantitative digital analysis was conducted using ImageJ v1.54d and the triangle auto-threshold method to quantify the number of viable GFP fluorescent tachyzoites per image, as previously described.
as §2

For series [3], the system named is T. gondii RH GFP tachyzoites. Nature of the series: T. gondii RH GFP tachyzoite viability following 3 h pretreatment of parasites. The format is cell-based, Toxoplasma gondii. Conditions: for Tachyzoite Pre-Treatment SI: CC50/IC50, tachyzoite pre-treatment; for IC50: read-out: Tachyzoite Pre-Treatment IC50. The protocol: Following treatment, tachyzoites were centrifuged at 712× g for 10 min, and the supernatant was discarded. Fresh medium devoid of compounds was then added to resuspend the parasites. Subsequently, 10,000 pretreated T. gondii RH GFP tachyzoites were introduced into each well of a 96-well plate containing Vero cells at 100% confluence. Seventy-two hours post-infection, each well of the 96-well plate was examined using a 10× objective on an EVOS microscope. Semiquantitative digital analysis was performed using ImageJ v1.54d, employing the triangle auto-threshold method to quantify the number of viable GFP fluorescent tachyzoites per image, as previously described.
as §2

The nature of series [4]: Cytotoxicity in Vero cells by Alamar Blue assay. Conditions: African green monkey. It counts as cell-based, African green monkey. The protocol:
as §1

The mark [5] stands for this setting: tachyzoites pretreated 3 h, read 72 h post-infection.
Setting [6] is: Toxoplasma gondii, tachyzoites pretreated 3 h, read 72 h post-infection.

As to `COc1cc(C2=NNC(c3ccc(F)cc3)C2)ccc1O` (stereo not shown) [Compound 1], in the series with Vero cells, the CC50 came to 132 µM. Besides, the IC50 in series [1] is 6.7 µM; in series [2] it was 7.5 µM; in series [3] (setting [5]) it was 23.4 µM. The molecule also yielded an SI in series [1] of 19.6. The “Host Cell Pre-Treatment SI” value in series [2] was 17.5. Moreover, the “Tachyzoite Pre-Treatment SI” value in series [3] was found to be 5.6.
`COc1cc(C2=NNC(c3ccc(Cl)cc3)C2)ccc1O` (stereo not shown) [Compound 2]: the CC50 with Vero cells was found to be 123 µM. The molecule further displayed an SI in series [1] of 73.3. Also, in series [2], the “Host Cell Pre-Treatment SI” value was found to be 16.4 and the IC50 came to 7.5 µM. In addition, in series [3], the “Tachyzoite Pre-Treatment SI” value was 18.6. Also, the IC50 in series [3] (setting [5]) is 6.6 µM.
Consider `COc1ccc(C2CC(c3ccc(O)c(OC)c3)=NN2)cc1` (stereo not shown) [Compound 3], for which, in the series on Vero cells, the CC50 was over 160 µM. In addition, in series [1], the IC50 was determined as 18.1 µM and the SI is over 8.3.
Turning to `COc1cc(C2=NNC(c3ccc4c(c3)OCO4)C2)ccc1O` (stereo not shown) [Compound 4], in the series with Vero cells, the CC50 worked out at 154 µM. Further, the SI in series [1] came to 42.6. In series [2], the “Host Cell Pre-Treatment SI” value is listed as 28.9 and the IC50 turned out to be 5.3 µM. Also, in series [3], the “Tachyzoite Pre-Treatment SI” value is reported as 4.8. Also, in series [3] (setting [5]), the IC50 was 31.6 µM.
`CC(C)(C)n1nc(-c2c[nH]c3ccccc23)c(C#N)c1-c1c(Cl)cccc1Cl` [Compound 5]: the CC50 with Vero cells was over 160 µM. In series [1], this molecule showed an IC50 of 14 µM and an SI of over 11.4.
Consider `CC(C)(C)n1nc(-c2c[nH]c3ccccc23)c(C#N)c1-c1ccc(Br)cc1` [Compound 8], for which, in the series on Vero cells, the CC50 is over 160 µM. In addition, in series [1], half-maximal inhibition (IC50) was put at 21 µM and the SI is over 7.6.
As to `CC(=NO)C(C)=NN=C1NC(=O)/C(=C/c2ccccc2O)S1` [Compound 9], in series [4], the CC50 at 24 h is over 160 µM. Further, the SI in series [1] is listed as over 25.9. For the same molecule, the IC50 in series [1] (Toxoplasma gondii) came out at 6.1 µM; in series [2] (Toxoplasma gondii), 10.7 µM; in series [3] (setting [6]), 0.9 µM. In series [2], the “Host Cell Pre-Treatment SI” value is over 14.9. The “Tachyzoite Pre-Treatment SI” value in series [3] was over 164.9.
For `CC(=NO)C(C)=NN=C1NC(=O)C(=Cc2ccc(O)cc2)S1` [Compound 10], the CC50 with Vero cells stood at 61.2 µM. Also, the figures for the IC50 in series [1], in series [2] and in series [3] (setting [5]) were 5.7 µM, 15.4 µM and 4.9 µM, respectively. In series [1], this molecule displayed an SI of 10.6. Besides, the “Host Cell Pre-Treatment SI” value in series [2] was determined as 3.9. Further, the “Tachyzoite Pre-Treatment SI” value in series [3] was 12.4.
Take `CC(=N/O)/C(C)=N\N=C1/NC(=O)/C(=C/c2ccc(C#N)cc2)S1` [Compound 11]: the CC50 at 24 h in series [4] came out at 53.2 µM. In series [1], this molecule showed an SI of 14.5. Further, the IC50 in series [1] (Toxoplasma gondii) came to 3.6 µM; in series [2] (Toxoplasma gondii), 22.5 µM; in series [3] (setting [6]), 29.5 µM. Further, the “Host Cell Pre-Treatment SI” value in series [2] is recorded as 2.3. In addition, the “Tachyzoite Pre-Treatment SI” value in series [3] is given as 1.8.
Consider `COc1ccc(C=C2SC(=NN=C(C)C(C)=NO)NC2=O)cc1` [Compound 12], for which, in the series on Vero cells, the CC50 is 40.3 µM. In series [1], this molecule came in with an IC50 of 3.9 µM and an SI of 10.2. In series [2], the “Host Cell Pre-Treatment SI” value was 3.8 and the IC50 was found to be 10.5 µM. Moreover, the “Tachyzoite Pre-Treatment SI” value in series [3] is listed as 6.9. Also, the IC50 in series [3] (setting [5]) came out at 5.8 µM.
In the case of `CC(=N/O)/C(C)=N\N=C1/NC(=O)/C(=C/c2ccc(O)c(O)c2)S1` [Compound 13], in the series with Vero cells, the CC50 is over 160 µM. Also, in series [1], the IC50 was found to be 8.8 µM and the SI is given as over 18.1. The “Host Cell Pre-Treatment SI” value in series [2] was over 0.6. Also, in series [3], the “Tachyzoite Pre-Treatment SI” value is listed as over 8.0. In addition, the IC50 in series [3] (setting [5]) is 19.8 µM.
Turning to `CC(=N/O)/C(C)=N\N=C1/NC(=O)/C(=C/c2ccc(Cl)cc2)S1` [Compound 14], the CC50 in the series on Vero cells was over 160 µM. For the same molecule, in series [1], the midpoint of inhibition, the IC50, lay at 142 µM and the SI is on record as over 1.1.
On to `CC(=N/O)/C(C)=N\N=C1\NC(=O)/C(=C/c2cc3ccccc3[nH]c2=O)S1` [Compound 15], for which the CC50 at 24 h in series [4] is over 160 µM. In addition, the SI in series [1] was over 16.8. In addition, the figures for the IC50 in series [1] (Toxoplasma gondii), in series [2] (Toxoplasma gondii) and in series [3] (setting [6]) were 9.5 µM, 54.4 µM and 4 µM, respectively. The “Host Cell Pre-Treatment SI” value in series [2] is over 2.9. In series [3], the “Tachyzoite Pre-Treatment SI” value is on record as over 39.7.
For `CCc1nc(N)nc(N)c1-c1ccc(Cl)cc1` [Pyrimethamine, pyrimethamine, reference compound], the CC50 at 24 h in series [4] is over 200 µM. The SI in series [1] is recorded as over 666. Also, the IC50 in series [1] (Toxoplasma gondii) was 0.3 µM; in series [2] (Toxoplasma gondii) it was 1 µM; in series [3] (Toxoplasma gondii), 6.1 µM. In series [2], the “Host Cell Pre-Treatment SI” value is over 190. Moreover, the “Tachyzoite Pre-Treatment SI” value in series [3] is given as over 32.4.
